According to ChEMBL document CHEMBL5728563, “Aminopyrazine derivatives as PI3K-γ inhibitors” (2021):

Columns and labels:
[1] = molecular target: Phosphatidylinositol 4,5-bisphosphate 3-kinase catalytic subunit gamma isoform (Homo sapiens, UniProt P48736); assay: (§1) PI3K-gamma Scintillation Proximity Assay: Materials: [γ-33P]ATP (10 mCi/mL) and Wheat Germ Agglutinin (WGA) YSi SPA Scintillation Beads was purchased from Perkin Elmer (Waltham, Mass.). Lipid kinase substrate, D-myo-Phosphatidylinositol 4,5-bisphosphate (PtdIns(4,5)P2)D (+)-sn-1,2-di-O-octanoylglyceryl, 3-O-phospho linked (PIP2), CAS 204858-53-7, was purchased from Echelon Biosciences (Salt Lake City, Utah). PI3Kγ (p110γ) Recombinant Human Protein was purchased from Life technology (Grand Island, N.Y.). ATP, MgCl2, DTT, EDTA, MOPS and CHAPS were purchased from Sigma Aldrich (St. Louis, Mo.).The kinase reaction was conducted in polystyrene 384-well Greiner Bio-one white plate from Thermo Fisher Scientific in a final volume of 25 μL. Inhibitors were first diluted serially in DMSO and added to the plate wells before the addition of other reaction components. The final concentration of DMSO in the assay was 2%. The PI3Kγ assay was carried out at room temperature in 20 mM MOPS, pH 6.7, 10 mM MgCl2, 5 mM DTT and CHAPS 0.03%. Reactions were initiated by the addition of ATP, the final reaction mixture consisted of 20 μM PIP2, 2 μM ATP, 0.5 μCi [γ-33P] ATP, 13 nM PI3Kγ. Reactions were incubated for 120 min and terminated by the addition of 40 μL SPA beads suspended in quench buffer: 163 mM potassium phosphate pH 7.8, 20% glycerol, 25 mM EDTA. The final concentration of SPA beads is 1.0 mg/mL. […]
Chain of Phosphatidylinositol 4,5-bisphosphate 3-kinase catalytic subunit gamma isoform (P48736 whole entry, canonical isoform): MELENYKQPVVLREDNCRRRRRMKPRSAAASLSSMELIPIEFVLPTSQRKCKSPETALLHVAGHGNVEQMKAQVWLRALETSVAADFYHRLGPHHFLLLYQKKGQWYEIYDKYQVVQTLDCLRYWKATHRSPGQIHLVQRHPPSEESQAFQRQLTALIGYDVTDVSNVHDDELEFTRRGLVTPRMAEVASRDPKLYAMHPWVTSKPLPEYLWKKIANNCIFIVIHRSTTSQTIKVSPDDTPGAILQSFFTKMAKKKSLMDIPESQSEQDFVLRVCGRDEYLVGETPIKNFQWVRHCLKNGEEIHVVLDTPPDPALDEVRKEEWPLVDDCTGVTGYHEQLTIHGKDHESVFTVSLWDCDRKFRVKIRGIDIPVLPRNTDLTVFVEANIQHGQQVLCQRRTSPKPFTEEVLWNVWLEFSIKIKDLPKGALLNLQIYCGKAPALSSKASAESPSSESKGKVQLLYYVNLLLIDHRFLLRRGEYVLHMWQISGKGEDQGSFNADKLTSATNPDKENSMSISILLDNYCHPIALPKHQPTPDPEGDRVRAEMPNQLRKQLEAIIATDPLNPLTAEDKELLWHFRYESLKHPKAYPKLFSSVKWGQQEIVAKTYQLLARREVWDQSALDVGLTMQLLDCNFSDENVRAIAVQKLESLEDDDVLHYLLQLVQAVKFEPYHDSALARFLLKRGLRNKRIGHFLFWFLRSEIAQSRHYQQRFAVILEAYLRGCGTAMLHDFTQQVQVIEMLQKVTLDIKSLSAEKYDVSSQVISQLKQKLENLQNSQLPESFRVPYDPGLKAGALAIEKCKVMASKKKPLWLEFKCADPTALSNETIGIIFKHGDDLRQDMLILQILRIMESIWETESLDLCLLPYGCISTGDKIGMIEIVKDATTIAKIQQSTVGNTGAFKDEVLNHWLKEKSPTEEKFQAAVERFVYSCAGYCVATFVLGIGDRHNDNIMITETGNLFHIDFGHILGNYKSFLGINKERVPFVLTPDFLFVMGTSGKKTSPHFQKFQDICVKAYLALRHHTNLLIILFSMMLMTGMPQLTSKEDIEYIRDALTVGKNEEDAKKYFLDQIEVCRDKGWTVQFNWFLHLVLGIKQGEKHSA

[2] = molecular target: T1, Phosphatidylinositol 4,5-bisphosphate 3-kinase catalytic subunit delta isoform (Homo sapiens, UniProt O00329); assay: as §1, with “PI3Kdelta” for “PI3K-gamma”, “PI3Kδ (p110δ/p85α)” for “PI3Kγ (p110γ)”, “Eurofins (St Charles, Mo.).” for “Life technology (Grand Island, N.Y.).”, “PI3Kδ” for “PI3Kγ”, “3.4” for “13”, “PI3Kδ.” for “PI3Kγ.”
T1 sequence (O00329 whole entry): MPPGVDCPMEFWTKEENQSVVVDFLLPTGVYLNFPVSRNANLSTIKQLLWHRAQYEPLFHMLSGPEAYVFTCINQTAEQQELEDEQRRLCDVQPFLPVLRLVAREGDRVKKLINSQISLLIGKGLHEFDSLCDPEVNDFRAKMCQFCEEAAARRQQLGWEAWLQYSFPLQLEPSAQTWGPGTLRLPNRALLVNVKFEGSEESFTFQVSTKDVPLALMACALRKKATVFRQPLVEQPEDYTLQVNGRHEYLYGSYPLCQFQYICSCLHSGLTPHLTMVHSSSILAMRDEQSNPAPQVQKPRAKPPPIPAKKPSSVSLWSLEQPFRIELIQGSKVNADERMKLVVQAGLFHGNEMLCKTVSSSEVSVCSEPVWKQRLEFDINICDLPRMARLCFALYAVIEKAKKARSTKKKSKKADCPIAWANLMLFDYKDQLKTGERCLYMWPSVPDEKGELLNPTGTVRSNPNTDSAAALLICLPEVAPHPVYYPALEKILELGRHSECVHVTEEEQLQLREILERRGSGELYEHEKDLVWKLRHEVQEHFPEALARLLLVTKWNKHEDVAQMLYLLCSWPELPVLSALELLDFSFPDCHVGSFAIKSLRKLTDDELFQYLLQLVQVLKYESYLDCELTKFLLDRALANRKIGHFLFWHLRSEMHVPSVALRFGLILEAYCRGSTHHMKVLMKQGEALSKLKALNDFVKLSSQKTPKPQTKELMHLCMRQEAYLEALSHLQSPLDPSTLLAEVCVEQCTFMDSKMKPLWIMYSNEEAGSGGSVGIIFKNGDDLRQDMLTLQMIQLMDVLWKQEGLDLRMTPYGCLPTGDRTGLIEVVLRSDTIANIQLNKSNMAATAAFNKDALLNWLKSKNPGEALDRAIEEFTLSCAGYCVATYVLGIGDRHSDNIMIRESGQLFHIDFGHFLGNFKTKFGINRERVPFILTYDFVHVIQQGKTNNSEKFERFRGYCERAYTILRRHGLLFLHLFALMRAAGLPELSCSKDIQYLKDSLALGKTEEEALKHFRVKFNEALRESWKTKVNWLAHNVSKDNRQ

An IC50 [1] of less than 100 nM and an IC50 [2] of less than 100 nM were found for `Cc1ncc(-c2nc(-c3cc(C(O)(C(N)=O)C(F)(F)F)ccc3C)cnc2N)s1` (configuration not stated) in this work.
